Tests used:
[1] = test system: E. coli cells; experiment: GC-MS of methylketones in spent media of E. coli cells expressing ShMKS1, ShMKS2 or ShMKS2 (D79A); assay type: cell-based, Escherichia coli
Description: To test if expression of either ShMKS1 or ShMKS2 (without its transit peptide) in E. coli results in the formation of 3-ketoacids, we collected spent media of bacterial cells expressing each of them (by centrifuging out the cells at the end of the incubation period), heated the spent media at 75° C. for 30 min in the presence of 1 M sulfuric acid, extracted with hexane, then injected the hexane fraction in a GC-MS. […] On the other hand, the spent medium of E. coli cells expressing ShMKS2 contained 5.6±0.32 μg/μL of total methylketones, and the amount of methylketones increased […], to 40.7±2.1 μg/μL, after the spent medium was treated with acid and heat (FIG. 17).
The coding regions of ShMKS1 and ShMKS2 (minus the transit peptide-encoding region) were each amplified by PCR and inserted into the E. coli expression vector pEXP-TOPO-CT (Invitrogen). The expression vectors were introduced into E. coli BL21 Star (DE3) cells, and gene expression was induced by the addition of 0.5 mM IPTG after the culture optical density at 600 nm had reached 0.65. After induction with IPTG and growth at 18° C. overnight, the cells expressing ShMKS1 or ShMKS2 were centrifuged at 5000 rpm for 15 minutes, and 1-mL aliquots of the spent medium were placed in individual vials for further analysis.
Aliquots (1 mL) of the spent medium of E. coli expressing ShMKS2, obtained by centrifuging the culture solution after the incubation time at 5,000 rpm for 15 min and collecting the solution without the cells, were treated in the following ways: 1. Incubated with 40 μl (3 μg) of purified MKS1 in phosphate buffer (12.5 mM NaH2PO4, 125 mM NaCl, 2 mM DTT, pH 6.8) for 2 hrs at 30° C. 3. Incubated at 75° C. for 30 min followed by 30 min at 30° C. 4. Incubated with 1 mL of 2M H2SO4 at 75° C. for 30 min followed by 30 min at 30° C. After the various treatments, 1 mL of hexane containing 5 ng/μL linalool as an internal standard was added and the resulting mixture was vortexed and centrifuged at 5000 rpm for 10 min. Two μL of the resulting extract were injected into the GC-MS for determination of methylketones. GC-MS and product analysis were performed as described by Ben-Israel et al, (2009) Multiple biochemical and morphological factors underlie the production of methylketones in tomato trichomes, Plant Physiology 151: 1952-1964.

[2] = test system: 3-ketomyristoyl-ACP; experiment: In vitro thioesterase activity assay; assay type: biochemical; settings: 2.5 μg protein, 30 min at 23° C., then acid and heat
Description: To examine the potential thioesterase activity of ShMKS1 and ShMKS2 in vitro, we added 2.5 μg of each protein to a 500 μL solution of freshly prepared 3-ketomyristoyl-ACP. This protein-linked substrate was prepared using a sequential in vitro enzymatic system involving the addition of multiple starting materials and enzymes and the reaction allowed to proceed for 5 hr (see Examples, Materials, and Methods). Due to the highly unstable nature of 3-ketomyristoyl-ACP, this compound was not further purified but instead the solution in which it was synthesized was used as the “substrate solution” for qualitative in vitro thioesterase activity assays.
Aliquots of this substrate solution were incubated with buffer, ShMKS1, ShMKS2, or both ShMKS1 and ShMKS2 for 30 min at 23° C. […]
3-Ketomyristoyl-ACP was synthesized in a 500 μL reaction volume containing 1,3-bis(tris(hydroxymethyl)methylamino) propane (20 mM, pH 7.0), malonyl-CoA (0.2 mM), lauroyl-CoA (0.2 mM), ShACP (0.1 mM), EcFabD (10 μg) and MtFabH (10 μg). […] Hexane extracts were analyzed by GC-MS as described above. The values for heat-treated samples shown in FIG. 20 were corrected for loss of methylketones during the heating step, as determined by comparisons with standards.

[3] = test system: E. coli BL21 cells; experiment: Headspace SPME GC-MS of E. coli cultures expressing ShMKS2 or SlMKS2; assay type: cell-based, Escherichia coli; settings: IPTG induction, overnight growth
Description: To investigate the biochemical activity of MKS2, the full ORFs of the wild-species allele (ShMKS2) and the cultivated allele (SlMKS2) were amplified and ligated into an E. coli expression vector (see Examples, Materials and Methods). These vectors were introduced into E. coli BL21cells and ShMKS2 or SlMKS2 expression was induced by the addition of IPTG (see Examples, Materials and Methods). After induction and overnight growth, the culture was analyzed by solid-phase microextraction (SPME) of its headspace followed by gas chromatography-mass spectrometry (GC-MS; see Examples, Materials and Methods). The major compound in the headspace of the E. coli cells expressing ShMKS2 was identified as 2TD (FIG. 8A). Lower amounts of 2UD and 2-pentadecanone were also detected, as well as the reduced alcohol forms of 2UD and 2TD (i.e., 2-undecanol and 2-tridecanol). […] The headspace also contained 2-nonanol and 2-undecanol (FIG. 8B). However, the major headspace compound produced by SlMKS2-expressing cells eluted slightly later than 2TD (peak labeled “1” in FIG. 8B, and also present at lower levels in the chromatograph in FIG. 8A).
The sequence of these cDNAs was verified and transferred into the E. coli expression vector pHis9GW following Auldridge et al. (submitted). The pHis9GW vectors carrying ShMKS2 or SlMKS2 were mobilized into E. coli […] cells, and gene expression was induced by the addition of 2 mM IPTG after the culture OD595 value had reached 0.6-0.7. After IPTG addition, ShMKS2- and SlMKS2-expressing bacterial cells were grown at 30° C. or 18° C. overnight.
After induction with IPTG and growth overnight, 1 mL of culture was placed in a glass vial at 42° C. The vial was capped with a screw cap in which a small hole had been bored. The needle of a SPME device was inserted into the vial through the hole in the cap and the fiber extended for 30 min. for volatile collection, after which the fiber was withdrawn and then injected into the GC. […]

[4] = In vitro decarboxylase activity assay; assay type: biochemical; settings: substrate 3-ketomyristic acid
Description: To examine the possible decarboxylase activity of ShMKS1 as well as ShMKS2 in vitro, we tested homogenous recombinant ShMKS1 and partially purified recombinant ShMKS2 proteins (without their transit peptides) for their ability to convert 3-ketomyristic acid into its 2-tridecanone decarboxylated product. […] In steady-state kinetic assays, ShMKS1 was determined to have a KM of 18.4±5.6 μM for 3-ketomyristic acid, with an apparent kcat of 227.9±24.1 min^−1.
A typical decarboxylase assay consisted of a 500 μL reaction solution containing ShMKS1 or ShMKS2 (2.5 μg), 3-ketomyristic acid (0.1 mM), and 1,3-bis(tris(hydroxymethyl)methylamino) propane—Na^+ (20 mM, pH 7.0). For measuring kinetic parameters, substrate concentrations ranged from 5 μM to 75 μM. Assays were performed at 23° C. for 10 min after addition of protein. […] Reaction products (5 μL) were analyzed by a modified procedure, as described in O'Maille et al (2004) A single-vial analytical and quantitative gas chromatography-mass spectrometry assay for terpene synthases. […] Product quantification was performed using total ion monitoring (TIM) mode where all ions in the mass spectrum contribute to the measured response. […] 2-Tridecanone was quantified by integration of peak areas using Enhanced Chemstation (version B.01.00, Agilent Technologies). […]

[5] = combined heat and acid treatment
[6] = heated at 75° C. for 30 min, no sulfuric acid

Question: For “ShMKS2: methylketone synthase 2 from Solanum habrochaites glabratum (SEQ ID NO: 4 / 25); thioesterase hydrolyzing 3-ketoacyl-ACPs”, which “increase of amount of methylketones after acid and heat treatment” value ([1]; acid and heat treated vs untreated spent medium) is on record?
Answer: 8 fold

Question: What about the “total methylketones in spent medium” value ([1]; after spent medium was treated with acid and heat (1 M sulfuric acid, 75° C., 30 min)) of the same substance?
Answer: 40.7 ± 2.1 µg/µL

Question: And the “2-nonanone in spent medium” value [1, 5]?
Answer: 0.95 ± 0.04 µg/µL

Question: What about the “2-nonanone, fold over non-treated control” value [1, 5] of the same substance?
Answer: 19.1 fold

Question: And the “2-pentadecenone in spent medium” value [1, 5]?
Answer: 5.69 ± 0.21 µg/µL

Question: And the “2-pentadecenone, fold over non-treated control” value [1, 5]?
Answer: 4.4 fold

Question: And the “2-tridecanone in spent medium” value [1, 5]?
Answer: 11.99 ± 0.51 µg/µL

Question: What about the “2-tridecanone, fold over non-treated control” value [1, 5] of the same substance?
Answer: 4.6 fold

Question: What about the “2-tridecenone in spent medium” value [1, 5] of the same substance?
Answer: 13.04 ± 0.63 µg/µL

Question: And the “2-tridecenone, fold over non-treated control” value [1, 5]?
Answer: 11.8 fold

Question: And the “2-undecanone in spent medium” value [1, 5]?
Answer: 9.33 ± 0.61 µg/µL

Question: What about the “2-undecanone, fold over non-treated control” value [1, 5] of the same substance?
Answer: 18.3 fold

Question: What about the “2-nonanone, fold over non-treated control” value ([1]; heat only) of the same substance?
Answer: 11.9 fold

Question: And the “2-pentadecenone, fold over non-treated control” value ([1]; heat only)?
Answer: 3.0 fold

Question: And the “2-tridecanone, fold over non-treated control” value ([1]; heat only)?
Answer: 3.7 fold

Question: And the “2-tridecenone, fold over non-treated control” value ([1]; heat only)?
Answer: 9 fold

Question: What about the “2-undecanone, fold over non-treated control” value ([1]; heat only) of the same substance?
Answer: 12.2 fold

Question: What about the “2-nonanone in spent medium” value [1, 6] of the same substance?
Answer: 0.60 ± 0.05 µg/µL

Question: And the “2-pentadecenone in spent medium” value [1, 6]?
Answer: 3.94 ± 0.54 µg/µL

Question: And the “2-tridecanone in spent medium” value [1, 6]?
Answer: 9.61 ± 0.27 µg/µL

Question: And the “2-tridecenone in spent medium” value [1, 6]?
Answer: 9.94 ± 0.83 µg/µL

Question: What about the “2-undecanone in spent medium” value [1, 6] of the same substance?
Answer: 6.22 ± 0.34 µg/µL

Question: What about the “2-nonanone in spent medium” value ([1]; untreated spent medium) of the same substance?
Answer: 0.05 µg/µL

Question: And the “2-pentadecenone in spent medium” value ([1]; untreated spent medium)?
Answer: 1.3 µg/µL

Question: What about the “2-tridecanone in spent medium” value ([1]; untreated spent medium) of the same substance?
Answer: 2.6 µg/µL

Question: And the “2-tridecenone in spent medium” value ([1]; untreated spent medium)?
Answer: 1.1 µg/µL

Question: And the “2-undecanone in spent medium” value ([1]; untreated spent medium)?
Answer: 0.51 µg/µL

Question: What about the “total methylketones in spent medium” value ([1]; untreated spent medium) of the same substance?
Answer: 5.6 ± 0.32 µg/µL

Question: And the “amount of 2-tridecanone formed vs buffer-incubated substrate solution treated with acid and heat” value [2]?
Answer: approximately 3 fold

Question: What about the “major compound in the headspace of E. coli cells expressing the enzyme” value [3] of the same substance?
Answer: 2TD

Question: And the “decarboxylase activity” value [4]?
Answer: no decarboxylase activity

Question: For “SlMKS2: methylketone synthase 2, cultivated tomato S. lycopersicum allele (SEQ ID NO: 3)”, which “major compound in the headspace of E. coli cells expressing the enzyme” value [3] is on record?
Answer: 2-tridecenone

Question: And the “two main MK in the headspace” value [3]?
Answer: 2UD as well as 2-nonanone
